Data from patent US8309573B2, “Salt of isoquinoline compound and crystal thereof” (Mitsubishi Tanabe Pharma Corporation, priority 2007, dated 2012).

How the values were obtained:
[1] = physchem; conditions: water, thermodynamic from solid
Protocol: This was subjected to ultrasonication on a water bath for 10 min, and gently shaken in a twin mixer (TM-282, AS ONE Corporation) at room temperature for 1 hr. After shaking, the mixture was centrifuged by a portable ultracentrifuge (10000 rpm×10 min., MC-150, TOMY SEIKO CO., LTD.) and the supernatant was filtered (Millex-LH, Millipore Corporation).

[2] = Hygroscopicity comparison test (adsorption isotherm curve measurement); type: physicochemical; conditions: 0-95% RH, 25° C.
Protocol: An adsorption isotherm curve measurement was performed under the following conditions.
apparatus: DVS-1 (sms Ltd., UK)
measurement temperature: 25° C.
measurement operation: a sample was measured in a sample cup, sample weight was measured by successively changing the relative humidity at 50→0→95→0→50% RH.
The smaller weight change due to humidity is an important factor for the management of charge amount of the bulk drug for pharmaceutical products.

[3] = Chemical stability comparison test (one month preservation, purity by HPLC); type: physicochemical
Protocol: The sample after preservation was measured for chemical purity by HPLC. The HPLC conditions are shown below. • apparatus: SHIMADZU Corporation • column: Inertsil ODS-3V (GL Sciences Inc.) inner diameter 4.6 mm and length 150 mm • column oven: 40° C. • detection wavelength: 234 nm • measurement operation: a sample (about 1 mg) was measured in a vial container for HPLC, dissolved in a mixture (1 mL) of water/acetonitrile=1:1, and analyzed under the following conditions. • eluent composition: SOLUTION A 0.1% trifluoroacetic acid/water • SOLUTION B 0.1% trifluoroacetic acid/acetonitrile • gradient: SOLUTION B concentration: 5→100% (60 min) • mobile phase flow rate: 1.0 mL/min • injection volume: 5 μL
An increase rate of related substances after one month preservation was determined from the peak area in the HPLC chromatogram.

[4] = preserved one month at 40° C. 75% RH

Molecule	solubility [1] [mg/mL]	moisture absorption [2]	moisture absorption, corresponding hydrated water [2] [hydrated water]	Increase rate of related substances (%) ([3]; preserved one month at 30° C.)	Increase rate of related substances (%) ([3]; preserved one month at 40° C.)	Increase rate of related substances (%) [3, 4]	Increase rate of related substances (%) ([3]; preserved one month at 50° C.)
Cc1cccc2c(=O)[nH]c(CCN3CCC[C@@H]3CO)cc12.Cl.O.O [monohydrochloride dihydrate, (R)-3-[2-(2-hydroxymethylpyrrolidin-1-yl)ethyl]-5-methyl-2H-isoquinolin-1-one monohydrochloride dihydrate]	45	11 % (w/w)	2				
Cc1cccc2c(=O)[nH]c(CCN3CCC[C@@H]3CO)cc12 [free form, (R)-3-[2-(2-hydroxymethylpyrrolidin-1-yl)ethyl]-5-methyl-2H-isoquinolin-1-one]	≤ 1			+0.16%	+0.18%	+0.28%	+1.30%
anhydrous (R)-3-[2-(2-hydroxymethylpyrrolidin-1-yl)ethyl]-5-methyl-2H-isoquinolin-1-one monophosphate		0.5 % (w/w)	0.1	−0.01%	−0.01%	−0.02%	−0.01%
